The experiment has as its target T1, P2X7 (UniProt Q99572).
T1 sequence (Q99572 1-595): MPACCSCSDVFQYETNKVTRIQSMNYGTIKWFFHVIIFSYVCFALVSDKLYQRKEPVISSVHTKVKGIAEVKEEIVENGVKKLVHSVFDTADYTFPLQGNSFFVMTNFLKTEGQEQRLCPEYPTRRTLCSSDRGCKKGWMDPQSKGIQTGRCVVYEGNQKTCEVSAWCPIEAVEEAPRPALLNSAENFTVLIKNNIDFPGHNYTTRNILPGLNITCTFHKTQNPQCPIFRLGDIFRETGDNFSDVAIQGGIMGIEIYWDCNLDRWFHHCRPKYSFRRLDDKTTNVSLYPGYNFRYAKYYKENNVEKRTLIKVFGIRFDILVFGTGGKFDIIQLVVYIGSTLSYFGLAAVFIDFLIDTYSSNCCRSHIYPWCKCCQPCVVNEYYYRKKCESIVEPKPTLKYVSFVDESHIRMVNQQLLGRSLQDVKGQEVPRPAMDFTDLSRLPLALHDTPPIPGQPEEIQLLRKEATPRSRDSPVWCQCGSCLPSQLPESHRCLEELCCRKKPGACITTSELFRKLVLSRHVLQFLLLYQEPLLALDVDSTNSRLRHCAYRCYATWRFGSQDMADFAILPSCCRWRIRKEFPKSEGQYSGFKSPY
The experiment is described as follows: P2X7 activity of Table 1. To be noted: pIC50 values for P2X7. The experiment is classed as cell-based. The gist of the method: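 FLIPR calcium flux with fluo-3 in 1321N1 cells expressing human P2X7 and HEK293 cells expressing rat P2X7, in HBSS with 2 mM CaCl2 and 2.5 mM probenecid. Antagonist pre-incubated 20 min at room temperature, then BzATP added (100 μM human, 5 μM rat). Peak response over 5 min normalised to 5 μM ionomycin.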

For the compound `COC[C@@H](O)Cn1nc(-c2ccc(C)c(NC(=O)C3=CNC(=O)C[C@H]3c3ccc(F)cc3)c2)cc1C` [Compound 91, (S)-4-(4-Fluoro-phenyl)-6-oxo-1,4,5,6-tetrahydro-pyridine-3-carboxylic acid {5-[1-((S)-2-hydroxy-3-methoxy-propyl)-5-methyl-1H-pyrazol-3-yl]-2-methyl-phenyl}-amide], the pIC50 (usually the IC50 on a negative log10 scale, so that one unit is a factor of ten) was found to be 7.15.

As to `COC[C@@H](O)Cn1nc(-c2ccc(C)c(NC(=O)C3=CN(C)C(=O)C[C@H]3c3ccc(F)cc3)c2)cc1C` [Compound 92, (S)-4-(4-Fluoro-phenyl)-1-methyl-6-oxo-1,4,5,6-tetrahydro-pyridine-3-carboxylic acid {5-[1-((S)-2-hydroxy-3-methoxy-propyl)-5-methyl-1H-pyrazol-3-yl]-2-methyl-phenyl}-amide], the pIC50 stood at 6.615.

In turn, `Cc1ccc(-c2ccnn(CCO)c2=O)cc1NC(=O)C1=CN(C)C(=O)C[C@H]1c1cccc(F)c1` [Compound 93, (S)-4-(3-Fluoro-phenyl)-1-methyl-6-oxo-1,4,5,6-tetrahydro-pyridine-3-carboxylic acid {5-[2-(2-hydroxy-ethyl)-3-oxo-2,3-dihydro-pyridazin-4-yl]-2-methyl-phenyl}-amide] had a negative-log IC50 (pIC50) of 7.5.

`Cc1ccc(-c2ccnn(CCO)c2=O)cc1NC(=O)C1=CN(C)C(=O)C[C@H]1c1ccc(F)cc1` [Compound 94, (S)-4-(4-Fluoro-phenyl)-1-methyl-6-oxo-1,4,5,6-tetrahydro-pyridine-3-carboxylic acid {5-[2-(2-hydroxy-ethyl)-3-oxo-2,3-dihydro-pyridazin-4-yl]-2-methyl-phenyl}-amide] displayed a pIC50 of 7.8.

Consider `Cc1ccc(-c2cc(C)n(CCO)n2)cc1NC(=O)C1=CNC(=O)CC1c1cc(F)cc(F)c1` (stereo not drawn) [Compound 95, 4-(3,5-Difluoro-phenyl)-6-oxo-1,4,5,6-tetrahydro-pyridine-3-carboxylic acid {5-[1-(2-hydroxy-ethyl)-5-methyl-1H-pyrazol-3-yl]-2-methyl-phenyl}-amide], for which the negative logarithm of the IC50 (pIC50) is 7.85.

`Cc1ccc(-c2ccc(C)c(NC(=O)C3=CNC(=O)C[C@H]3c3cccc(F)c3)c2)nn1` [Compound 96, (S)-4-(3-Fluoro-phenyl)-6-oxo-1,4,5,6-tetrahydro-pyridine-3-carboxylic acid [2-methyl-5-(6-methyl-pyridazin-3-yl)-phenyl]-amide] yielded a pIC50 of 7.48.

The compound `Cc1ccc(-c2ncccn2)cc1NC(=O)C1=CNC(=O)C[C@H]1c1cccc(F)c1` [Compound 97, (S)-4-(3-Fluoro-phenyl)-6-oxo-1,4,5,6-tetrahydro-pyridine-3-carboxylic acid (2-methyl-5-pyrimidin-2-yl-phenyl)-amide] displayed a pIC50 of 7.09.

In turn, `Cc1ccc(-c2ccc(=O)n(C)n2)cc1NC(=O)C1=CNC(=O)C[C@H]1c1ccc(F)cc1` [Compound 98, (S)-4-(4-Fluoro-phenyl)-6-oxo-1,4,5,6-tetrahydro-pyridine-3-carboxylic acid [2-methyl-5-(1-methyl-6-oxo-1,6-dihydro-pyridazin-3-yl)-phenyl]-amide] registered a pIC50 of 6.52.

Compound `Cc1ccc(-c2ccc(=O)[nH]n2)cc1NC(=O)C1=CNC(=O)C[C@H]1c1ccc(F)cc1` [Compound 99, (S)-4-(4-Fluoro-phenyl)-6-oxo-1,4,5,6-tetrahydro-pyridine-3-carboxylic acid [2-methyl-5-(6-oxo-1,6-dihydro-pyridazin-3-yl)-phenyl]-amide] displayed a pIC50 of 7.515.

In turn, `Cc1ccc(-n2ncc(=O)n(CCO)c2=O)cc1NC(=O)C1=CN(C)C(=O)C[C@H]1c1ccc(F)cc1` [Compound 100, (S)-4-(4-Fluoro-phenyl)-1-methyl-6-oxo-1,4,5,6-tetrahydro-pyridine-3-carboxylic acid {5-[4-(2-hydroxy-ethyl)-3,5-dioxo-4,5-dihydro-3H-[1,2,4]triazin-2-yl]-2-methyl-phenyl}-amide] yielded a negative logarithm of the IC50 (pIC50) of 7.5.

As for `Cc1ccc(-n2ncc(=O)n(CCO)c2=O)cc1NC(=O)C1=CN(C)C(=O)C[C@H]1c1cccc(F)c1` [Compound 101, (S)-4-(3-Fluoro-phenyl)-1-methyl-6-oxo-1,4,5,6-tetrahydro-pyridine-3-carboxylic acid {5-[4-(2-hydroxy-ethyl)-3,5-dioxo-4,5-dihydro-3H-[1,2,4]triazin-2-yl]-2-methyl-phenyl}-amide], the pIC50 came out at 7.57. The pIC50 values of the last two compounds are within 0.2 log units of each other.

Turning to `Cc1ccc(-c2cc(C(F)(F)F)[nH]n2)cc1NC(=O)C1=CNC(=O)C[C@H]1c1ccc(F)cc1` [Compound 102, (S)-4-(4-Fluoro-phenyl)-6-oxo-1,4,5,6-tetrahydro-pyridine-3-carboxylic acid [2-methyl-5-(5-trifluoromethyl-1H-pyrazol-3-yl)-phenyl]-amide], the negative-log IC50 (pIC50) is 5.77.

`COC[C@@H](O)Cn1nc(-c2ccc(C)c(NC(=O)C3=CN(C)C(=O)C[C@H]3c3cccc(F)c3)c2)cc1C` [Compound 103, (S)-4-(3-Fluoro-phenyl)-1-methyl-6-oxo-1,4,5,6-tetrahydro-pyridine-3-carboxylic acid {5-[1-((S)-2-hydroxy-3-methoxy-propyl)-5-methyl-1H-pyrazol-3-yl]-2-methyl-phenyl}-amide] came in with a pIC50 of 7.1.

With `COC[C@H](O)Cn1nccc(-c2ccc(C)c(NC(=O)C3=CN(C)C(=O)C[C@H]3c3cccc(F)c3)c2)c1=O` [Compound 104, (S)-4-(3-Fluoro-phenyl)-1-methyl-6-oxo-1,4,5,6-tetrahydro-pyridine-3-carboxylic acid {5-[2-((R)-2-hydroxy-3-methoxy-propyl)-3-oxo-2,3-dihydro-pyridazin-4-yl]-2-methyl-phenyl}-amide], the pIC50 was determined as 7.8.

As for `COC[C@H](O)Cn1nccc(-c2ccc(C)c(NC(=O)C3=CN(C)C(=O)C[C@H]3c3ccc(F)cc3)c2)c1=O` [Compound 105, (S)-4-(4-Fluoro-phenyl)-1-methyl-6-oxo-1,4,5,6-tetrahydro-pyridine-3-carboxylic acid {5-[2-((R)-2-hydroxy-3-methoxy-propyl)-3-oxo-2,3-dihydro-pyridazin-4-yl]-2-methyl-phenyl}-amide], the pIC50 was 7.57.

`COC[C@H](O)Cn1nccc(-c2ccc(C)c(NC(=O)C3=CNC(=O)C[C@H]3c3ccc(F)cc3)c2)c1=O` [Compound 106, (S)-4-(4-Fluoro-phenyl)-6-oxo-1,4,5,6-tetrahydro-pyridine-3-carboxylic acid {5-[2-((R)-2-hydroxy-3-methoxy-propyl)-3-oxo-2,3-dihydro-pyridazin-4-yl]-2-methyl-phenyl}-amide] showed a pIC50 of 7.885.

`Cc1ccc(-n2ncc(=O)[nH]c2=O)cc1NC(=O)C1=CN(C)C(=O)C[C@H]1c1ccc(F)cc1` [Compound 107, (S)-4-(4-Fluoro-phenyl)-1-methyl-6-oxo-1,4,5,6-tetrahydro-pyridine-3-carboxylic acid [5-(3,5-dioxo-4,5-dihydro-3H-[1,2,4]triazin-2-yl)-2-methyl-phenyl]-amide] gave a pIC50 of 6.81.

In the case of `Cc1ccc(-n2ncc(=O)[nH]c2=O)cc1NC(=O)C1=CN(C)C(=O)C[C@H]1c1cccc(F)c1` [Compound 108, (S)-4-(3-Fluoro-phenyl)-1-methyl-6-oxo-1,4,5,6-tetrahydro-pyridine-3-carboxylic acid [5-(3,5-dioxo-4,5-dihydro-3H-[1,2,4]triazin-2-yl)-2-methyl-phenyl]-amide], the negative logarithm of the IC50 (pIC50) worked out at 7.145.
